Reference: US12559465B2, “Substituted benzotriazinone metabolites of a GPR139 agonist” (TAKEDA PHARMACEUTICAL COMPANY LIMITED, priority 2020, dated 2026)

Tests used:
Assay type in all cases: in vitro ADME
MRP2 [1] = biological target: MRP2 (Rattus norvegicus, UniProt Q63120); assay: MRP2 inhibition in membrane vesicles (rat)
MRP2 [2] = biological target: MRP2 (Homo sapiens, UniProt Q92887); assay: MRP2 inhibition in membrane vesicles (human)
Procedure: (§1) Inhibition of BSEP (dog and human) and MRP2 (dog and human) by Compound A and Compound B were tested in membrane vesicles.

MRP4 = biological target: T1, MRP4 (Homo sapiens, UniProt O15439); assay: MRP4 inhibition (human)
T1 sequence (O15439 1-1325): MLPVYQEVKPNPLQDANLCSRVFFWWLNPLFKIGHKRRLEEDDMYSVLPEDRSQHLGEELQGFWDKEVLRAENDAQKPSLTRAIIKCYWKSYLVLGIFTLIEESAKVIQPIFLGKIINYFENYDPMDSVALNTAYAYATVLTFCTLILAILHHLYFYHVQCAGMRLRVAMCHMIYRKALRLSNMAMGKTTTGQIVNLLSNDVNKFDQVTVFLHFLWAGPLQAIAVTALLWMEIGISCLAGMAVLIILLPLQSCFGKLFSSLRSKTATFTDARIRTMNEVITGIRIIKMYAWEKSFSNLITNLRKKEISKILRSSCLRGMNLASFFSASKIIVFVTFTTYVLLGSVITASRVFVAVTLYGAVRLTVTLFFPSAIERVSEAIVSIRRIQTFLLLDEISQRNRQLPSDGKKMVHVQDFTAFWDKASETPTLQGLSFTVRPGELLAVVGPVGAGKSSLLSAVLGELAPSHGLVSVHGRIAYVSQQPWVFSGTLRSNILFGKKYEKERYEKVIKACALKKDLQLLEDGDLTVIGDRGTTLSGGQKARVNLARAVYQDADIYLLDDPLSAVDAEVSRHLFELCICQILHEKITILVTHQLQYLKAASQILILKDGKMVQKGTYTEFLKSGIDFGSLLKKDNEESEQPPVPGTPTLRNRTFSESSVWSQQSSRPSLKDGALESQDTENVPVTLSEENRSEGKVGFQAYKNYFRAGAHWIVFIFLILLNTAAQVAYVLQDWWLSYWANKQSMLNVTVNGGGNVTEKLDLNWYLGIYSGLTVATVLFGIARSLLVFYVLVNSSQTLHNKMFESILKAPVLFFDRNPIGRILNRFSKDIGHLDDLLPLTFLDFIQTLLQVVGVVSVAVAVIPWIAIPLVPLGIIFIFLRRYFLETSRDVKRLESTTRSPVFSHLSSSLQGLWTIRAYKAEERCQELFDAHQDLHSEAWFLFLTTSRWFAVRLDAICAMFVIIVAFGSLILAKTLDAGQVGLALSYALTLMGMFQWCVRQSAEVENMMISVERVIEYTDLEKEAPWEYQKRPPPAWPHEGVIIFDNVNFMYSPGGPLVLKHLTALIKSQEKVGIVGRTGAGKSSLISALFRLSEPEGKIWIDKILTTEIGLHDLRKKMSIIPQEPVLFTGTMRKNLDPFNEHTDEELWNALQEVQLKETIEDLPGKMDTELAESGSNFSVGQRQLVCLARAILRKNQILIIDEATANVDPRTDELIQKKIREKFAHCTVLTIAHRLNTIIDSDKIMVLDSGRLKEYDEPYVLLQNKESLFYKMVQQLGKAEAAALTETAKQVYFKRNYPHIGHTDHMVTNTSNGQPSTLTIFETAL

MRP2 [3] = biological target: MRP2 (Canis lupus familiaris, UniProt A0A8I3SCV5); assay: MRP2 inhibition in membrane vesicles (dog)
Procedure: as §1

BSEP [4] = biological target: T2, BSEP (Canis lupus familiaris, UniProt B8K1W2); assay: BSEP inhibition in membrane vesicles (dog)
T2 sequence (B8K1W2 1-1325): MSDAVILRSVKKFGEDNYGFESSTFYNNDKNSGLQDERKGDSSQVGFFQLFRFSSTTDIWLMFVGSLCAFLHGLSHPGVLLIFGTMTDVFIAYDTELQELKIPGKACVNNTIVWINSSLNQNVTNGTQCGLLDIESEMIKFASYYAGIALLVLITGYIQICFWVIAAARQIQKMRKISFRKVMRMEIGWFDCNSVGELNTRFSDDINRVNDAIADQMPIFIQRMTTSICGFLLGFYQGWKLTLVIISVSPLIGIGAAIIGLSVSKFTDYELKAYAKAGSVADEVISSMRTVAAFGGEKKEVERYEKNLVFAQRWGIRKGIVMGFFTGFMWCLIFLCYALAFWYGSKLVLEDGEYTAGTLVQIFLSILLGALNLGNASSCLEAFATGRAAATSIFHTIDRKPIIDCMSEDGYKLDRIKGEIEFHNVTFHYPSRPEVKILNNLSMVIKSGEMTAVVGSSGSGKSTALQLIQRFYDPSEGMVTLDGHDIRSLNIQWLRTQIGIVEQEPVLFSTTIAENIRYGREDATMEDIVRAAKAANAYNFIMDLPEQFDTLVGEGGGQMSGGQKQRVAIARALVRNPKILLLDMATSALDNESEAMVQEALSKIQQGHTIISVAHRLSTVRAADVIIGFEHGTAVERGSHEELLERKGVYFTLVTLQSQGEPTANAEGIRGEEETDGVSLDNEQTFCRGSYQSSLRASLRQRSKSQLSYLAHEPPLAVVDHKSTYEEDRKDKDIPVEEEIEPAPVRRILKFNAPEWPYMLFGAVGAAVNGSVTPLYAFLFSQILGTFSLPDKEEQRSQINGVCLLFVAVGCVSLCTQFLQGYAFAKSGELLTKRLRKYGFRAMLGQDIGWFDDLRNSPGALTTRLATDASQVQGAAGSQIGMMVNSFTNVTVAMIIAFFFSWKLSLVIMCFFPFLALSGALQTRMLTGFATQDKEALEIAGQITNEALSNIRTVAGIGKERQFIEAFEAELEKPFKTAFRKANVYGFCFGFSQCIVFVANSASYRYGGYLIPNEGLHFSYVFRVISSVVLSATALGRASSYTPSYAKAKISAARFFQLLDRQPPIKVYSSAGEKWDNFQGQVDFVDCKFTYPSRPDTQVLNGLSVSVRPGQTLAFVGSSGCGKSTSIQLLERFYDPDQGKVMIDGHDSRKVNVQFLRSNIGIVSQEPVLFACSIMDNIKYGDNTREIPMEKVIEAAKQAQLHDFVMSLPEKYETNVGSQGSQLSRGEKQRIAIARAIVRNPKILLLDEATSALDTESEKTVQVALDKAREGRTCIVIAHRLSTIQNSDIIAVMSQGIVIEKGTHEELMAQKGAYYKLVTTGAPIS
Procedure: as §1

MRP3 = MRP3 (Homo sapiens, UniProt O15438); assay: MRP3 inhibition (human)
BSEP [5] = biological target: T3, BSEP (Rattus norvegicus, UniProt O70127); assay: BSEP inhibition in membrane vesicles (rat)
T3 sequence (O70127 1-1321): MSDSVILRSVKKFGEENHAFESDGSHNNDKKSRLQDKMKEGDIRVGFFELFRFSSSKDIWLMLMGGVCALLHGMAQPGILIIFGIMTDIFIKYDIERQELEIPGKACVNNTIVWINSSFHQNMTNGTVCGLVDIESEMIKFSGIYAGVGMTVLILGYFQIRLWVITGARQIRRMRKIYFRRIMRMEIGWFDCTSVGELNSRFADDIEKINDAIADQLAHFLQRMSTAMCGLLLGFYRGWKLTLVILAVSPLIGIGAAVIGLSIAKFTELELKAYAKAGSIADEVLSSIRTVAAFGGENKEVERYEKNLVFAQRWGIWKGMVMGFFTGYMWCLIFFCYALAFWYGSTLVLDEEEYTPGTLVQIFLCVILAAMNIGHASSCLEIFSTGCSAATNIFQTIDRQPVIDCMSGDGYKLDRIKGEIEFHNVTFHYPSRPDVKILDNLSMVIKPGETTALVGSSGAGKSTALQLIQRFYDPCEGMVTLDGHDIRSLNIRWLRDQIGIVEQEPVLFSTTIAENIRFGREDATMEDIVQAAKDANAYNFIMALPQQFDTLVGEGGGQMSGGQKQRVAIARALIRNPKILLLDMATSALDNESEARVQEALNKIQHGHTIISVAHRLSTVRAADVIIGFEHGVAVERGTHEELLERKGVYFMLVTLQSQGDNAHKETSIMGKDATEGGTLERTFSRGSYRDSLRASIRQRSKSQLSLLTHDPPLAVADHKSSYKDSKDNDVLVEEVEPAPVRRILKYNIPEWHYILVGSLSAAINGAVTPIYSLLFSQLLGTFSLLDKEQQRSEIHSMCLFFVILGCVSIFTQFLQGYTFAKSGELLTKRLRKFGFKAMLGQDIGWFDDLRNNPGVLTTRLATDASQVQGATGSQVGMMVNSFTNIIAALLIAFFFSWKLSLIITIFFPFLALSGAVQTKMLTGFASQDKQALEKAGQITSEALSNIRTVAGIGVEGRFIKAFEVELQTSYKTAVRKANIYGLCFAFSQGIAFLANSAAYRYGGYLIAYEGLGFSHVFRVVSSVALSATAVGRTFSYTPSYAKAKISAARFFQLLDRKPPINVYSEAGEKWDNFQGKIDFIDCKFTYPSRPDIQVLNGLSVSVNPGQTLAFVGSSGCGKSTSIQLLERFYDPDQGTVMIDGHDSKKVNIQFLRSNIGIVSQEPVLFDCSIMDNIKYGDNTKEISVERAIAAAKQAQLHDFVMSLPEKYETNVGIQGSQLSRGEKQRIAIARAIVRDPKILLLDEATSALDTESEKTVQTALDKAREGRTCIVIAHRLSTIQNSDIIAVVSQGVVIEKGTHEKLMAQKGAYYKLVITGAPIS

BSEP [6] = biological target: BSEP (Homo sapiens, UniProt O95342); assay: BSEP inhibition in membrane vesicles (human)
Procedure: as §1

Chain of BSEP (Homo sapiens, UniProt O95342) (O95342 whole entry): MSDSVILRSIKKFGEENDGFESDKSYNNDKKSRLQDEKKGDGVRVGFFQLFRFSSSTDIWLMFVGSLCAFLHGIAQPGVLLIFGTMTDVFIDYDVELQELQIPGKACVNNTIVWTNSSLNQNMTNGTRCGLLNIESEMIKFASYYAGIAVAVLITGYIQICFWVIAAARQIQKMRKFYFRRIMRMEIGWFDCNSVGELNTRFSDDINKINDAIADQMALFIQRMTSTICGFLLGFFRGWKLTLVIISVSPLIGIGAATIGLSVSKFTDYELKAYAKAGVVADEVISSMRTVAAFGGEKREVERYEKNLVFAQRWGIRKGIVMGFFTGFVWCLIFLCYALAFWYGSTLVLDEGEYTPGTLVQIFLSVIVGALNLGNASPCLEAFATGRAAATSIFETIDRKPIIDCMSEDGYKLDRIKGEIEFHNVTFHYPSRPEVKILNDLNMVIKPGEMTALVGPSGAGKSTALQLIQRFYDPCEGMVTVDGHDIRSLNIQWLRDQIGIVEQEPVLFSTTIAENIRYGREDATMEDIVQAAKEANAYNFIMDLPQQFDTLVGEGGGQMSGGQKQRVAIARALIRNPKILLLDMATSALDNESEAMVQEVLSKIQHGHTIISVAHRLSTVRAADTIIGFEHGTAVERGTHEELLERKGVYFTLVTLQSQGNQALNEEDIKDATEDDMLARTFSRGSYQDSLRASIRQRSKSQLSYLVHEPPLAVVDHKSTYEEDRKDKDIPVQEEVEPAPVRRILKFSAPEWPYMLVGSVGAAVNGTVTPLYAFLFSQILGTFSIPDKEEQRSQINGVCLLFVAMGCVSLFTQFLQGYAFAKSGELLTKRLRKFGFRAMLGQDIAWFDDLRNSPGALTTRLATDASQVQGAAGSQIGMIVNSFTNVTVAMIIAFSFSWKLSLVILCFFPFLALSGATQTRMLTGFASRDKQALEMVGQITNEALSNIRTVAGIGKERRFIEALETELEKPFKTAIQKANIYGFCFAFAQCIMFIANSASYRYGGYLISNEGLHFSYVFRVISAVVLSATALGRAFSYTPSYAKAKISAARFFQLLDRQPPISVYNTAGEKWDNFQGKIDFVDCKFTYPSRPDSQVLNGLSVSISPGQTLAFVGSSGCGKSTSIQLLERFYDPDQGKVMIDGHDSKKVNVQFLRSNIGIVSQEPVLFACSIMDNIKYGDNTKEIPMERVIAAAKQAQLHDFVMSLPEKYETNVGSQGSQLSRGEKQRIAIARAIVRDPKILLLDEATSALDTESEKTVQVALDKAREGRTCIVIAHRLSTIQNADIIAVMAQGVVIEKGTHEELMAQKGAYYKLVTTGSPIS
Chain of MRP2 (Homo sapiens, UniProt Q92887) (Q92887 whole entry): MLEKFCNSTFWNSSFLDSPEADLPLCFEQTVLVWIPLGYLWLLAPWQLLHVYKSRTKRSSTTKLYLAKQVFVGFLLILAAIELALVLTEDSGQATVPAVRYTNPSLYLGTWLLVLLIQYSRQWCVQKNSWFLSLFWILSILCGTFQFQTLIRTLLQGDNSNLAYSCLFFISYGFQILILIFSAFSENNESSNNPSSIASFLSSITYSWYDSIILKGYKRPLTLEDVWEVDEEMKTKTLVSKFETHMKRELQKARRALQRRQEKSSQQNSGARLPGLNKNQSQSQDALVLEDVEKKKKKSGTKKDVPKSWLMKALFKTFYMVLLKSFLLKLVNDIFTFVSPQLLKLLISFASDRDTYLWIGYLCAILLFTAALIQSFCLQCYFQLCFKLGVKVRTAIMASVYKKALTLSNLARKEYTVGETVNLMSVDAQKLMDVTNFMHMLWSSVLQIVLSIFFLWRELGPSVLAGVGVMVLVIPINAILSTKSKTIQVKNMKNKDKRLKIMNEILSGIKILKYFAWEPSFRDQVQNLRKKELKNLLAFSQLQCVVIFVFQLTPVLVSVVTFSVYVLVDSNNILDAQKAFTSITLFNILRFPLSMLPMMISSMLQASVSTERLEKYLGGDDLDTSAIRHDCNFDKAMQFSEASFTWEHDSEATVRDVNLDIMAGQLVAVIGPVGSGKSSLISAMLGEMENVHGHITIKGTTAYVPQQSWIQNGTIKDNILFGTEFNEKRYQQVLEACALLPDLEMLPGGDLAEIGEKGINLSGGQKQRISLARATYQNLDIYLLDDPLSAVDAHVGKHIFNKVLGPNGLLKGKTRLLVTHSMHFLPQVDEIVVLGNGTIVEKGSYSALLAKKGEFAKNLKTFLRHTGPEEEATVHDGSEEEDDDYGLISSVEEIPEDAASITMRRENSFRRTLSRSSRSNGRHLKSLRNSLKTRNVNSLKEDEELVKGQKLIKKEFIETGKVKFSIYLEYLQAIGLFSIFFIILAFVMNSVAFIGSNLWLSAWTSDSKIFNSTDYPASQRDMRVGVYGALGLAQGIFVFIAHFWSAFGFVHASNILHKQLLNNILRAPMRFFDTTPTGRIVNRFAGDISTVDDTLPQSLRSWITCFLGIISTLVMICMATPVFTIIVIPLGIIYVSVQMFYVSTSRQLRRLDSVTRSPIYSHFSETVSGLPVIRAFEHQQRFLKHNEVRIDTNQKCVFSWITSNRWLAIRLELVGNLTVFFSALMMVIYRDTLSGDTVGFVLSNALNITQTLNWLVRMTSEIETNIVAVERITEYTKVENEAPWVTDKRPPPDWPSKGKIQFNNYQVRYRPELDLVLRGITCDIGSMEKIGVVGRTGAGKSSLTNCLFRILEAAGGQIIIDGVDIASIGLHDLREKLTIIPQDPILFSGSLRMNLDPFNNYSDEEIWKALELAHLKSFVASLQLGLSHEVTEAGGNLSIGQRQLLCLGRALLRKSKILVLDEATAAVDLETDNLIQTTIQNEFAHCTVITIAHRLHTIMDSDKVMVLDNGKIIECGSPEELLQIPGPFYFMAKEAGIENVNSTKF
Chain of MRP2 (Canis lupus familiaris, UniProt A0A8I3SCV5) (A0A8I3SCV5 1-1544): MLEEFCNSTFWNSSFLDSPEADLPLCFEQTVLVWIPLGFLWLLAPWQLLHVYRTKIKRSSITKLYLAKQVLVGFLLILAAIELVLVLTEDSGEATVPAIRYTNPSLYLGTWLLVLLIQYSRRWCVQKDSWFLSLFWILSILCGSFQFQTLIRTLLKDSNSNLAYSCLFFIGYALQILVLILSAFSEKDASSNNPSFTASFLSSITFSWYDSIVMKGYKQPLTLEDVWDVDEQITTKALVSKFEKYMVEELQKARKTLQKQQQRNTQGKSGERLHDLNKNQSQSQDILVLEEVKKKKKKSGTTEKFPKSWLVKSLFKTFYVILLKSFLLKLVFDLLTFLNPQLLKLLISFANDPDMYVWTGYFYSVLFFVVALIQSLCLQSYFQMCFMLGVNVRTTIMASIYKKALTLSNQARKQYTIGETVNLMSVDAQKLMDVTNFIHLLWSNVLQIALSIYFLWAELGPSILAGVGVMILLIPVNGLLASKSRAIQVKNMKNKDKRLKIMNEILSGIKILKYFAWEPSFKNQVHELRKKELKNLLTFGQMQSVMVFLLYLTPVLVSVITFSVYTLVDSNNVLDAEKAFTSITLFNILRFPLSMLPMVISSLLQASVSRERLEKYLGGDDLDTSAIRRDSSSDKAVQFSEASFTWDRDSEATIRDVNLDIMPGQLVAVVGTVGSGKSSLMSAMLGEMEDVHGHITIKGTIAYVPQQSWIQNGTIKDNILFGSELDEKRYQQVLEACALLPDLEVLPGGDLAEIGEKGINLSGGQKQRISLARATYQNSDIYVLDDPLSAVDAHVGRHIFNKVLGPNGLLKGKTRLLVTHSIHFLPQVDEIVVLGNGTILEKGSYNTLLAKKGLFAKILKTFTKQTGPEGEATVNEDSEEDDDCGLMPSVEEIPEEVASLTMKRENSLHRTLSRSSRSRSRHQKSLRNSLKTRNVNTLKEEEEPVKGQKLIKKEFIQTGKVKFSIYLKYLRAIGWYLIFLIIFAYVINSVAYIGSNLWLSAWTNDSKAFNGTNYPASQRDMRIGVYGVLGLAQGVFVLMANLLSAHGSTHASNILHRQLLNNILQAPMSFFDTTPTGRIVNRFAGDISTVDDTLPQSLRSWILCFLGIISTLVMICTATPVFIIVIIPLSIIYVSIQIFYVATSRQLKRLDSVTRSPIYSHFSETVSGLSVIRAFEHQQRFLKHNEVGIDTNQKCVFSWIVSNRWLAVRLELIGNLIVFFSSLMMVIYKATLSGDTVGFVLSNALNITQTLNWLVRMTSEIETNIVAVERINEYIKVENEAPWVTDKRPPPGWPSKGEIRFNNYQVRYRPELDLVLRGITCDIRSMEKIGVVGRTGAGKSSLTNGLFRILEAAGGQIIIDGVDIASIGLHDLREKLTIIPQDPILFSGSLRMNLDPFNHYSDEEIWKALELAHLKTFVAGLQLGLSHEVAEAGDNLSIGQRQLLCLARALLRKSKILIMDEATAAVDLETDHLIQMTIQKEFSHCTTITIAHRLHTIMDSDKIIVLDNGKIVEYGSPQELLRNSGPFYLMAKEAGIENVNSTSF

| IC50 (MRP2 [1]) [µM] | IC50 (MRP2 [2]) [µM] | IC50 (MRP4) [µM] | IC50 (MRP2 [3]) [µM] | IC50 (MRP3) [µM] | SMILES | IC50 (BSEP [4]) [µM] | IC50 (BSEP [5]) [µM] | IC50 (BSEP [6]) [µM] | BSEP inhibition (BSEP [4]; result in words) | BSEP inhibition (BSEP [6]; result in words) |
| --- | --- | --- | --- | --- | --- | --- | --- | --- | --- | --- |
| > 200 | > 200 | > 200 | > 200 | > 200 | C[C@H](NC(=O)Cn1nnc2ccccc2c1=O)c1ccc(OC(F)(F)F)cc1 [Compound A, (S)-2-(4-oxobenzo[d][1,2,3]triazin-3(4H)-yl)-N-(1-(4-(trifluoromethoxy)phenyl)ethyl)acetamide] | 72.3 | > 200 | > 200 |  |  |
|  | 83 |  | 1.8 |  | C[C@H](NC(=O)Cn1nnc2ccc(O[C@@H]3O[C@H](C(=O)O)[C@@H](O)[C@H](O)[C@H]3O)cc2c1=O)c1ccc(OC(F)(F)F)cc1 [Compound B, (2S,3S,4S,5R,6S)-3,4,5-trihydroxy-6-((4-oxo-3-(2-oxo-2-(((S)-1-(4-(trifluoromethoxy)phenyl)ethyl)amino)ethyl)-3,4-dihydrobenzo[d][1,2,3]triazin-6-yl)oxy)tetrahydro-2H-pyran-2-carboxylic acid] | > 200 |  | > 200 | not identified | not identified |
